From patent publication US9918968B2, “Rapamycin analogs targeting proteasome function in the treatment of cancer” (THE BOARD OF REGENTS OF THE UNIVERSITY OF TEXAS SYSTEM, priority 2013, dated 2018)

Key:
[1] = target: T1, human 20S proteasome, ChT-L peptidase; test: ChT-L peptidase activity of purified human 20S proteasome (Suc-LLVY-MCA); assay type: biochemical; conditions: for IC50: latent human 20S proteasome
T1 construct: purchased Enzo LifeSciences
Protocol: Human purified proteasome complexes were purchased from Enzo LifeSciences or Boston Biochemicals (19S complex). BODIPY-casein (Invitrogen/Molecular Probes) was used as a model protein substrate, with increasing fluorescence of BODIPY labeled peptide products of degradation monitored for up to 8 hours at 37° C. The peptidase activity of the enzyme was measured as arbitrary intensity units of the released fluorescent group 7-amino-4-methylcoumarin (AMC) from peptide substrates, as described. […] Proteasome substrates, rapamycin, its derivatives, and competing peptides were stocked in DMSO and diluted 100-fold in the reaction mixtures. The Rpt5 and PA200 C-terminal peptides were synthesized in the Departmental Peptide Synthesis Core using the standard SPPS chemistry. To activate the latent 20S proteasome, 0.005% (final concentration) of sodium dodecyl sulfate (SDS) was used. […] The fluorescence of products was monitored every 2 minutes with a Fluoroskan Ascent plate reader. Reaction rates were calculated from smoothed linear segment of kinetic curves using OriginPro 8.6 (OriginLabs, Northampton, Mass.). For the determination of an inhibition type, at least six distinct substrate concentrations and two inhibitor concentrations were used. The kinetic parameters of inhibition were analyzed in terms of the Michaelis-Menten formalism using the enzyme kinetic module of SigmaPlot v.12 (Systat Software, Inc, San Jose, Calif.) to perform the respective calculations. […]
The in vitro assay for testing the ChT-L peptidase activity of the purified human 20S proteasome was performed as described above.

[2] = target: T2, human 20S proteasome, PGPH peptidase; test: PGPH peptidase activity of purified human 20S proteasome (CbzLLE-MCA); assay type: biochemical; conditions: for IC50: latent human 20S proteasome
T2 construct: purchased Enzo LifeSciences
Protocol: (§1) Human purified proteasome complexes were purchased from Enzo LifeSciences or Boston Biochemicals (19S complex). BODIPY-casein (Invitrogen/Molecular Probes) was used as a model protein substrate, with increasing fluorescence of BODIPY labeled peptide products of degradation monitored for up to 8 hours at 37° C. The peptidase activity of the enzyme was measured as arbitrary intensity units of the released fluorescent group 7-amino-4-methylcoumarin (AMC) from peptide substrates, as described. The common substrates specific for the three kinds of active sites: succinyl-LeuLeuValTyr-7-amido-4-methylcoumarin (Suc-LLVY-MCA; for the ChT-L activity; Bachem), butoxycarbonyl-LeuArgArg-MCA (BocLRR-MCA; for T-L; Bachem) and carbobenzoxy-LeuLeuGlu-MCA (CbzLLE-MCA; for PGPH; Enzo Life Sciences International, Inc.) were used at 100 μM final concentrations, unless stated otherwise (Gaczynska and Osmulski, 2005). Proteasome substrates, rapamycin, its derivatives, and competing peptides were stocked in DMSO and diluted 100-fold in the reaction mixtures. The Rpt5 and PA200 C-terminal peptides were synthesized in the Departmental Peptide Synthesis Core using the standard SPPS chemistry. To activate the latent 20S proteasome, 0.005% (final concentration) of sodium dodecyl sulfate (SDS) was used. The reactions were carried out in 96 well plates, with 2.3 nM proteasome and other components as indicated dissolved in 50 mM Tris-HCl buffer (pH 8.0) and incubated at 37° C. for up to 1 hour. The fluorescence of products was monitored every 2 minutes with a Fluoroskan Ascent plate reader. Reaction rates were calculated from smoothed linear segment of kinetic curves using OriginPro 8.6 (OriginLabs, Northampton, Mass.). For the determination of an inhibition type, at least six distinct substrate concentrations and two inhibitor concentrations were used. The kinetic parameters of inhibition were analyzed in terms of the Michaelis-Menten formalism using the enzyme kinetic module of SigmaPlot v.12 (Systat Software, Inc, San Jose, Calif.) to perform the respective calculations.
(§2) IC50 values (a drug concentration causing 50% inhibition of the indicated enzymatic activity) were calculated for ChT-L and PGPH peptidases. Kd (dissociation constant) and Bmax (maximal activation effect achieved; in % above the control activity) values were calculated for the T-L peptidase. Mean±SD from n=2 or 3 experiments, or data from representative experiments set in duplicates or triplicates, are presented in the table. All three peptidase activities changed by no more than ±20%, without a concentration-dependent trend, upon treatment with up to 10 μM of rapamycin unrelated mTOR inhibitors PI-103 or NVP-BEZ235, in two independent experiments.

[3] = target: T3, human 20S proteasome, T-L peptidase; test: T-L peptidase activity of purified human 20S proteasome (BocLRR-MCA); assay type: biochemical; conditions: for Kd: activation of T-L peptidase; for Bmax [%]: T-L: maximal activation effect, % above the control activity
T3 construct: purchased Enzo LifeSciences
Protocol: as §1, §2

[4] = system: T4, 20S core with 19S, 11S, tRpt5 or tPA200; test: Activation of 20S core ChT-L activity by α face ligands (19S, 11S, tRpt5, tPA200); assay type: biochemical, human
T4 construct: purchased Enzo LifeSciences (20S, 11S); Boston Biochemicals (19S complex)
Protocol: as §1
De novo assembly of 19S from subunits is a complex process assisted by chaperones. In vitro, and likely also in cells, the 26S can also be reconstructed from 20S and the already-assembled 19S particle in the presence of ATP (Smith et al., 2005). Enhancement of the peptidase activities of the core proteasome is an established test for efficiency of the in vitro reconstruction. […] In contrast, a pretreatment of 20S with 5 μM rapamycin before adding ATP and 19S totally abrogated the activation, leaving the proteasome almost 40% inhibited instead (FIG. 6).

20S proteasome α face = system: T5, 20S proteasome α face; test: AFM imaging of open/closed conformers of 20S proteasome α face; parameters: species or system human; conditions: 10 μM compound
T5 construct: purchased Enzo LifeSciences
Protocol: AFM imaging of the 20S proteasomes were performed as previously described, in tapping (oscillating) mode in liquid (Osmulski et al., 2009 and Gaczynska and Osmulski, 2011). In short, 3 μL of proteasome preparations diluted to nanomolar concentration were deposited on a freshly cleaved muscovite mica surface. After 2 min incubation allowing electrostatic attachment of the protein particles to mica the droplet was overlaid with 30 microL of 50 mM Tris-HCl buffer (pH 7.0) and mounted in the wet chamber of a MultiMode NanoScope Ma (Bruker Corp.). Oxide-sharpened silicon nitride tips on cantilevers with a nominal spring constant 0.32 N/m (Bruker Corp.) were used to image 1 μm^2 fields in the height mode, with a scan rate of 3.05 Hz. The excitation frequency was manually tuned to 9-10 kHz, with a drive voltage of 200-500 mV and a relatively high set point (1.6 V to 1.9 V) to assure tapping with low, non-destructive force. […] As the inventors established previously, such resolution was sufficient to detect distinct conformations of the α face, covered by six scan lines. Multiple fields were scanned for each sample to collect images of hundreds of particles. Selected fields were repeatedly scanned to monitor changes in topography of the same particles for prolonged time. Inhibitors and the SucLLVY-MCA substrate were diluted in 10 μL of the imaging buffer and directly injected into the chamber. Raw images are presented, with a standard plain-fit and flattening (NanoScope software v.5.12) used as the only processing tools. For display purposes the brightness and contrast of the images was adjusted with the Nanoscope software or with Adobe Photoshop (Adobe Systems Inc.), and outlier scan lines were occasionally manually removed (Nanoscope software). Top view (“standing”, rounded) proteasomes were distinguished from the minor population of side-view (“lying”, rectangular) particles as described, by comparison of their length—to width ratios (Osmulski et al., 2009). The dimensions of particles were approximated and a shape of the α face in top-view proteasomes was judged with the help of a section tool in the Nanoscope v.5.12 or SPIP v.6.02 software (Image Metrology).
For this purpose, the inventors used the noninvasive tapping mode atomic force microscopy (AFM) in liquid, the imaging technique suitable for analysis of surface topography of macromolecules in their native state with a nanometer-scale practical resolution. The inventors established before that AFM imaging is a useful tool for studying structural dynamics of the 20S α face (Osmulski et al., 2009, Gaczynska et al., 2003; Gaczynska et al., 2011). They acquired and analyzed images of hundreds of single native, fully active 20S molecules. The majority of particles were in top-view (“standing”) position conveniently allowing for imaging of their α faces. […] Following previous extensive studies, the inventors refer to the two forms as “closed-gate” and “open-gate” proteasomes, respectively (Osmulski et al., 2009). As described before, the inventors used the shape of sections carried out in four directions through the top portion of the surface topography of the α ring to distinguish between the two forms. In short, the particle was classified as closed if all four sections were cone-shaped. In contrast, the particle was classified as open if all sections presented a dip surrounded by a rim (FIG. 5A) (Osmulski, et al., 2009). The same particles imaged in consecutive scans were able to assume either closed or open conformations, however the cone-shaped particles were always more abundant than crater-shaped, and accounted for about three-quarters of the imaged molecules (FIG. 5B). Addition of rapamycin to the imaged particles remarkably changed the partition of forms. […]

Row | IC50 [1] | IC50 [2] | Kd [3] | Bmax [%]: T-L [3] | Compound | other results
1 | 2.9 ± 0.5 µM | 0.43 ± 0.11 µM | 0.11 µM | 114% | CO[C@H]1C[C@@H]2CC[C@@H](C)[C@@](O)(O2)C(=O)C(=O)N2CCCC[C@H]2C(=O)O[C@H]([C@H](C)C[C@@H]2CC[C@@H](OP(C)(C)=O)[C@H](OC)C2)CC(=O)[C@H](C)/C=C(\C)[C@@H](O)[C@@H](OC)C(=O)[C@H](C)C[C@H](C)/C=C/C=C/C=C/1C [ridaforolimus] | –
2 | 1.9 ± 0.2 µM | 0.41 ± 0.03 µM | 0.14 µM | 83% | CO[C@H]1C[C@@H]2CC[C@@H](C)[C@@](O)(O2)C(=O)C(=O)N2CCCC[C@H]2C(=O)O[C@H]([C@H](C)C[C@@H]2CC[C@@H](O)[C@H](OC)C2)CC(=O)[C@H](C)/C=C(\C)[C@@H](O)[C@@H](OC)C(=O)[C@H](C)C[C@H](C)/C=C/C=C/C=C/1C [rapamycin] | remaining ChT-L activity ([1]; 2 μM rapamycin alone): 70%; ChT-L peptidase activity ([1]; 2 μM, % of DMSO control, representative experiment): 52%; ChT-L peptidase activity after 10-fold dilution ([1]; after incubation with 2 μM, 10-fold dilution): 99%; Ki ([1]; mixed inhibition model): 490 nM; PGPH peptidase activity ([2]; 0.2 μM, % of control): 48%; PGPH peptidase activity after 10-fold dilution ([2]; after incubation with 0.2 μM, 10-fold dilution): 96%; Ki ([2]; noncompetitive inhibition): 250 nM; inhibition of ChT-L activity, 20S pretreated before ATP and 19S ([4]; 5 μM, 19S 1:1): ~40%; inhibition of proteasome in presence of tPA200 ([4]; 10 μM compound, 10 μM tPA200): 50%
3 | > 20 µM | 0.57 ± 0.12 µM | 1.82 µM | 483% | CC[C@@H]1/C=C(\C)C[C@H](C)C[C@H](OC)[C@H]2O[C@@](O)(C(=O)C(=O)N3CCCC[C@H]3C(=O)O[C@H](/C(C)=C/[C@@H]3CC[C@H](Cl)[C@H](OC)C3)[C@H](C)[C@@H](O)CC1=O)[C@H](C)C[C@@H]2OC [pimecrolimus] | remaining ChT-L activity ([1]; 5 μM pimecrolimus alone): 82%; IC50 for PGPH increase as compared with rapamycin ([2]; relative to rapamycin): 40%; closed conformers (20S proteasome α face): ~40%; open conformers (20S proteasome α face): about 60%
4 | > 20 µM | 0.93 ± 0.04 µM | 1.14 µM | 257% | C=CC[C@@H]1/C=C(\C)C[C@H](C)C[C@H](OC)[C@H]2O[C@@](O)(C(=O)C(=O)N3CCCC[C@H]3C(=O)O[C@H](/C(C)=C/[C@@H]3CC[C@@H](O)[C@H](OC)C3)[C@H](C)[C@@H](O)CC1=O)[C@H](C)C[C@@H]2OC [FK-506] | lowering of activation by tRpt5 ([4]; 10 μM derivative, 10 μM tRpt5): about 30%; inhibition of proteasome with or without tPA200 ([4]; 10 μM derivative, presence or absence of 10 μM tPA200): about 40%
5 | 2.1 ± 0.2 µM | 0.36 ± 0.03 µM | 0.19 µM | 81% | CO[C@H]1C[C@@H]2CC[C@@H](C)[C@@](O)(O2)C(=O)C(=O)N2CCCC[C@H]2C(=O)O[C@H]([C@H](C)C[C@@H]2CC[C@@H](OC(=O)C(C)(CO)CO)[C@H](OC)C2)CC(=O)[C@H](C)/C=C(\C)[C@@H](O)[C@@H](OC)C(=O)[C@H](C)C[C@H](C)/C=C/C=C/C=C/1C [temsirolimus] | IC50 for ChT-L lower than rapamycin ([1]; relative to rapamycin): ~40%; IC50 for PGPH lower than rapamycin ([2]; relative to rapamycin): 20%
6 | – | – | – | – | Oc1cccc(-c2nc(N3CCOCC3)c3oc4ncccc4c3n2)c1 [PI-103] | closed conformers (20S proteasome α face): 74%±4%; closed conformers after substrate (20S proteasome α face; then SucLLVY-MCA 100 μM): 29%±5%; effect on activation of 20S with 19S ([4]; 5 μM): no detectable effects
7 | – | – | – | – | 11S: 11S proteasome activator complex PA28/REG | increase of ChT-L activity by protein complex ([4]; 1:1 molar ratio with 20S): 8 fold
8 | 2.5 ± 0.7 µM | 0.48 ± 0.11 µM | 0.07 µM | 93% | CO[C@H]1C[C@@H]2CC[C@@H](C)[C@@](O)(O2)C(=O)C(=O)N2CCCC[C@H]2C(=O)O[C@H]([C@H](C)C[C@@H]2CC[C@@H](OCCO)[C@H](OC)C2)CC(=O)[C@H](C)/C=C(\C)[C@@H](O)[C@@H](OC)C(=O)[C@H](C)C[C@H](C)/C=C/C=C/C=C/1C [everolimus] | –
